From patent publication US9481910B2, “Methods and compositions for the detection of drug resistant BRAF isoforms” (MEMORIAL SLOAN-KETTERING CANCER CENTER, priority 2011, dated 2016)
Entries after “also recorded” stand apart in the source; their conditions may differ.

Key:
[1] = test system: PLX4032-resistant SKMEL-239 clones; assay: Sensitivity of PLX4032-resistant SKMEL-239 clones to MEK inhibitor (5-day proliferation, pMEK/pERK dose-response); type: cell-based, human; conditions: all five resistant clones; slightly higher doses than in the parental cell line
Experimental: (§1) For proliferation assays, cells were plated in 6-well plates, and 24 hours later were treated with varying concentrations of inhibitors, or vehicle control, as indicated. IC50 values were calculated using Graph Pad Prism v.5. For cell cycle and apoptosis studies, cells were seeded in 6-well dishes the day prior to drug treatment. For analysis, both adherent and floating cells were harvested and stained with ethidium bromide as described previously 21.

p61 BRAF(V600E/R509H) = p61 BRAF(V600E/R509H) (Homo sapiens, UniProt P15056, DEL169-380/R509H/V600E); assay: ERK signaling in 293H cells expressing p61 BRAF(V600E/R509H); type: cell-based; conditions: 2 μM for 1 hour
Experimental: (§2) The BRAF inhibitor, PLX403219 (vemurafenib) was obtained from Plexxikon Inc. PD0325901 was synthesized in the MSKCC Organic Synthesis Core Facility. Flag-tagged BRAF constructs have been described previously4. All other plasmids were created using standard cloning methods, with pcDNA3.1 (Invitrogen) as a vector. Mutations were introduced using the site-directed Mutagenesis Kit (Stratagene). For transfection studies, cells were seeded on 35 mm or 100 mm plates and transfected the following day using Lipofectamine 2000 (Invitrogen). Cells were collected 24 hours later for subsequent analysis. cDNA Preparation and PCR.

p61 BRAF(V600E) [2] = target: T1, p61 BRAF(V600E) (Homo sapiens, UniProt P15056, DEL169-380/V600E); assay: In vitro kinase assay of immunoprecipitated V5-tagged p61 BRAF(V600E), inactive MEK(K97R) as substrate; type: biochemical; conditions: 200 μM ATP, 30° C., 20 min
Experimental: V5-tagged full length BRAF(V600E) or V5-tagged p61 BRAF(V600E) were ectopically expressed in 293H cells. 24 hours later, cells were harvested, lysed and BRAF was immunoprecipitated using a V5 antibody. […] Kinase activity was estimated by western blot for pMEK.
Immunoprecipitations and kinase assays. Cells were lysed in lysis buffer (50 mM Tris, pH7.5, 1% NP40, 150 mM NaCl, 10% glycerol, 1 mM EDTA) supplemented with protease and phosphatase inhibitor cocktail tablets (Roche). Immunoprecipitations were performed at 4° C. for 4 h, followed by three washes with lysis buffer and, in cases of subsequent kinase assay, one final wash with kinase buffer (25 mM Tris, pH 7.5, 10 mM MgCl2). […] The kinase reaction was terminated by adding sample buffer and boiling. Kinase activity was determined by immunoblotting for pMEK.

BRAF(V600E/R509H) = BRAF(V600E/R509H) (Homo sapiens, UniProt P15056, R509H/V600E); assay: ERK signaling in 293H cells expressing the dimerization mutant BRAF(V600E/R509H); type: cell-based; conditions: 2 μM for 1 hour
Experimental: as §2

[3] = test system: wild-type (+/+), BRAF−/− or CRAF−/− MEFs; assay: MEK/ERK activation in wild-type, BRAF knockout or CRAF knockout MEFs; type: cell-based; conditions: indicated concentrations, 1 h
p61 BRAF(V600E) [4] = target: T1, p61 BRAF(V600E); assay: ERK signaling in SKMEL-239 or HT-29 cells ectopically expressing p61 BRAF(V600E); type: cell-based; conditions: 1 hour
Experimental: as §2

[5] = test system: HT-29 cells (colorectal; BRAF(V600E)) expressing HER2 (V654E); assay: MEK/ERK in HT-29 cells transfected with activated HER2 (V654E); type: cell-based; conditions: various concentrations, 1 h
[6] = test system: HT-29 cells (colorectal; BRAF(V600E)) expressing NRAS(G12V); assay: MEK/ERK in HT-29 cells transfected with HA-tagged NRAS(G12V); type: cell-based; conditions: various concentrations, 1 h
SKMEL-239 cells = assay: Cell cycle and cell death (sub-G1 peak by FACS) in SKMEL-239 parental cells and resistant clones; type: cell-based, human
Experimental: as §1

p61 BRAF(V600E) [7] = target: T1, p61 BRAF(V600E); assay: ERK signaling in 293H cells ectopically expressing p61 BRAF(V600E); type: cell-based; conditions: 293H cells expressing p61 BRAF(V600E), 2 μM for 1 hour
Experimental: as §2

[8] = test system: ERK signaling (pMEK, pERK); assay: ERK signaling (pMEK/pERK Western blot) in SKMEL-239 parental cells and PLX4032-resistant clones
Experimental: Western blotting and receptor tyrosine kinase (RTK) arrays. Western blot analysis was performed as previously described13. The following antibodies were used: p217/p221-MEK (pMEK), p202/p204-ERK (pERK), MEK, ERK, (Cell Signaling), V5 tag (Invitrogen), BRAF, cyclin Flag tag, β-actin (Sigma).

[9] = parental SKMEL-239, 2 μM PLX4032

T1 sequence (P15056 with tags, fused parts or gaps DEL169-380/V600E): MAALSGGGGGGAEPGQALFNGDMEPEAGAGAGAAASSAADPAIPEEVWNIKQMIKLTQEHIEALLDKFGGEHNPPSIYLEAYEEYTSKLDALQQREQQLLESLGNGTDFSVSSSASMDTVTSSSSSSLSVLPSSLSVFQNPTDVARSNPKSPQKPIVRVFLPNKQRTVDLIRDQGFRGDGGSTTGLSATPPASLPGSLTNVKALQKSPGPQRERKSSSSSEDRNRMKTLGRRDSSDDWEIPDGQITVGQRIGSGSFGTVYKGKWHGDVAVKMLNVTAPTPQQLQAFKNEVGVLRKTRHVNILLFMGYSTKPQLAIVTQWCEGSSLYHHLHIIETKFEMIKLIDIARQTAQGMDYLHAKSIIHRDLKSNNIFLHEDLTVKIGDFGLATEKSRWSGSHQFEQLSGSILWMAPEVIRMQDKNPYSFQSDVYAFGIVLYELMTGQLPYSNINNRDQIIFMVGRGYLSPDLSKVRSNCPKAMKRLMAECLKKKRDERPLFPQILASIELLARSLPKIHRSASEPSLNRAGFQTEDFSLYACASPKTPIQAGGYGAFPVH
Sequence of p61 BRAF(V600E/R509H) (P15056 with tags, fused parts or gaps DEL169-380/R509H/V600E): as the sequence (P15056 with tags, fused parts or gaps DEL169-380/V600E) above, with R297H counted along it
Sequence of BRAF(V600E/R509H) (P15056 whole entry R509H/V600E): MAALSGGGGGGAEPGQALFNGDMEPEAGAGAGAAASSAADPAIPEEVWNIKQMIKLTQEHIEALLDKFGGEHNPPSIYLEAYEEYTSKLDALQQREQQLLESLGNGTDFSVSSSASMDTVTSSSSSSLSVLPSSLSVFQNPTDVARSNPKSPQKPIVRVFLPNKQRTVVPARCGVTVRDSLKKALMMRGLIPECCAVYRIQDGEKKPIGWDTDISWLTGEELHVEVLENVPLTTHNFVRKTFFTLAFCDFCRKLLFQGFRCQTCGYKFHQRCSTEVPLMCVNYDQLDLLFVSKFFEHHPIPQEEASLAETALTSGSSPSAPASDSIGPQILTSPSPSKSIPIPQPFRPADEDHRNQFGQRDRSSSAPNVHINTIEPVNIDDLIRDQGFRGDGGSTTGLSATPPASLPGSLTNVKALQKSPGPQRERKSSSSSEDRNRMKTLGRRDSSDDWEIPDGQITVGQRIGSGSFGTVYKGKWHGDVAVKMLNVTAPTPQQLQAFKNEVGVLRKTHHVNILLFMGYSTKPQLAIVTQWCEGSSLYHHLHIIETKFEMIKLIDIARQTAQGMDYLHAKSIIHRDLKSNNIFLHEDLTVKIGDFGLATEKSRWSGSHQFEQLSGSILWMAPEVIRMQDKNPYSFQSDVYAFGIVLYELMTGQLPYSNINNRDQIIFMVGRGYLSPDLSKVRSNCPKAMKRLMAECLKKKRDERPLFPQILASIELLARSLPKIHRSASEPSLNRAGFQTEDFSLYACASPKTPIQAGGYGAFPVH

| inhibition of ERK signaling (p61 BRAF(V600E/R509H)) | inhibition of kinase activity in vitro (pMEK Western blot) (p61 BRAF(V600E) [2]) | sensitivity of ERK signaling (BRAF(V600E/R509H)) | sensitivity of ERK signaling (pMEK, pERK) (p61 BRAF(V600E) [7]) | Structure (SMILES) | sensitivity to the MEK inhibitor [1] | MEK/ERK activation [3] | inhibition of ERK signaling (p61 BRAF(V600E) [4]; HT-29 cells expressing p61 BRAF(V600E)) | inhibition of ERK signaling (p61 BRAF(V600E) [4]; parental SKMEL-239 cells expressing p61 BRAF(V600E)) | sensitivity of MEK/ERK to RAF inhibitor [5] | sensitivity of MEK/ERK to RAF inhibitor [6] | cell death (sub-G1 peak by FACS) (SKMEL-239 cells; five PLX4032-resistant SKMEL-239 clones) | cell cycle effect (SKMEL-239 cells; [9]) | cell death (sub-G1 peak by FACS) (SKMEL-239 cells; parental SKMEL-239 cells) | sensitivity of ERK signaling to the drug ([8]; PLX4032-resistant SKMEL-239 cells) | IC50 for pMEK inhibition relative to the parental cell line ([8]; SKMEL-239 C3 clone, 1 hour) | pMEK IC50 relative to the parental clone ([8]; SKMEL-239 C5 clone, 1 hour) | inhibition of ERK signaling [8, 9] |
| --- | --- | --- | --- | --- | --- | --- | --- | --- | --- | --- | --- | --- | --- | --- | --- | --- | --- |
|  |  |  |  | O=C(NOC[C@H](O)CO)c1ccc(F)c(F)c1Nc1ccc(I)cc1F [PD032590113] | retained sensitivity |  |  |  |  |  |  |  |  |  |  |  |  |
| inhibited | can be inhibited in vitro | remained sensitive | resistant; also recorded: insensitive | CCCS(=O)(=O)Nc1ccc(F)c(C(=O)c2c[nH]c3ncc(-c4ccc(Cl)cc4)cc23)c1F [PLX4032] |  | MEK/ERK activation does not require BRAF | failure of PLX4032 to effectively inhibit ERK signaling | failure of PLX4032 to effectively inhibit ERK signaling | insensitive | insensitive | not in the five resistant clones | accumulation of cells in G1 | significant induction of cell death; also recorded: induced cell death | decreased sensitivity | more than 100 fold | 4.5 fold | effectively inhibits ERK signaling |
